No end group written: not given here.
Assays:
B55α interactors = assay: MS analysis of B55α WT, V228A, I284A, S287A and D340A immunopurifications; type: binding, human; settings: log2 ratio of interactor abundance, 4 replicates each, normalised to bait B55α; for log2_ratio_D340_WT: B55α D340A vs WT immunopurification; for log2_ratio I284_WT: B55α I284A vs WT immunopurification; for log2_ratio S287_WT: B55α S287A vs WT immunopurification; for log2_ratio V228_WT: B55α V228A vs WT immunopurification
Procedure: Standard cloning techniques were used throughout. Point mutations were introduced by whole plasmid polymerase chain reaction (PCR). All constructs were fully sequenced. Synthetic DNA was purchased from GeneArt, Life Technologies and cloned into pcDNA5/FRT/TO (Invitrogen) expression vector containing YFP, resulting in the indicated YFP fusion proteins. These constructs were transiently transfected into HeLa cells 24 hours before harvesting cells. Cells were lysed in lysis buffer [50 mM tris-HCl (pH 7.5), 50 mM NaCl, 1 mM EDTA, 1 mM […], and 0.1% NP-40]. Complexes were immunoprecipitated at 4°C in lysis buffer with green fluorescent protein (GFP)–Trap (ChromoTek) and washed in lysis buffer. Precipitated protein complexes were washed three times in lysis buffer, eluted in 2× SDS sample buffer, and subjected to Western blotting or MS as indicated.
Pull-downs were analyzed on a Q-Exactive Plus quadrupole or Fusion Orbitrap Lumos mass spectrometer (Thermo Fisher Scientific) equipped with Easy-nLC 1000 or […] (Thermo Fisher Scientific) and nanospray source (Thermo Fisher Scientific).
Static modifications included carbamidomethylcysteine, and variable modifications included oxidized methionine and STY phosphorylation. Searches were filtered using orthogonal measures including mass measurement accuracy (±3 parts per million), Xcorr for charges from +2 to +4, and dCn targeting a <1% false discovery rate at the peptide level. Quantification of LC-MS/MS spectra was performed using MassChroQ ([57]) and the iBAQ method ([58]). All data were analyzed using R 4.3.0. Missing values were imputed from a normal distribution. […] In each dataset, the abundance of the protein of interest was normalized to be equal across all samples. Statistical analyses were done using a two-tailed Student’s t test.

PP2A-B55α = assay: Affinity purification of YFP-tagged designed peptides from HeLa cells, binding to PP2A-B55α by Western blot; parameters: species or system human; settings: experimental binding of YFP-tagged designed peptide to PP2A-B55α
B55α = target: T1, B55α (Homo sapiens, UniProt P63151); assay: Surface plasmon resonance with captured Twin-Strep B55α; type: binding; settings: same SPR approach as for B55i; fig. S15
T1 construct: His; made in house; host or cells: HEK293 cells
T1 sequence (P63151 1-447): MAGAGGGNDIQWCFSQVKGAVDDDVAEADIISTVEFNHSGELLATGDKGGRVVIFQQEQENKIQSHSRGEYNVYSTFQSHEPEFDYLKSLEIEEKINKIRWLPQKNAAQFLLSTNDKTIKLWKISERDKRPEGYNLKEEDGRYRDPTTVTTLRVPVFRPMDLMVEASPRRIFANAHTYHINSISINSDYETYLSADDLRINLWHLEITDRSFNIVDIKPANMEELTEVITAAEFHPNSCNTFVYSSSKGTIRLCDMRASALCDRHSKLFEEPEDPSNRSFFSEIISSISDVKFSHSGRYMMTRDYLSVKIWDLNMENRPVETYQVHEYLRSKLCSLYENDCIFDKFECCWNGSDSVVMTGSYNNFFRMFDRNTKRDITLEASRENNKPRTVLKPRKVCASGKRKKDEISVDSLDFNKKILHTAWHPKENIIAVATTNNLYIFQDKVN

Row | Substance | log2_ratio_D340_WT (B55α interactors) | log2_ratio I284_WT (B55α interactors) | log2_ratio S287_WT (B55α interactors) | log2_ratio V228_WT (B55α interactors) | binding to PP2A-B55α (Western blot) (PP2A-B55α) | binding to B55α, affinity range (B55α)
1 | BAG3_HUMAN | 0.51 | 0.79 | 1.17 | 0.37 |  | 
2 | DNJA2_HUMAN | 1.00 | 0.64 | 1.02 | 0.87 |  | 
3 | DNJB6_HUMAN | -0.39 | 0.42 | 1.10 | 2.13 |  | 
4 | EEKLRILEKMEEKLKDKSLSLEKKVLLKNAKKSL |  |  |  |  | 28 | 
5 | EKILEIAKKKIEELKKKPGGLDLEKYLLYKKLIEKV |  |  |  |  | 15 | 
6 | EKRKKLKEKALEKLKDPNRDLEEKVLLRNWLKSL |  |  |  |  | 14 | 
7 | ELIKRLYEKAKEKLKDESRSLEKKVLLRNWIKSL |  |  |  |  | 62.5 | 
8 | ELPLEEVERLLKLAEEKLKDESLSLTKKVLLRNL |  |  |  |  | 55.5 | 
9 | HAX1_HUMAN | -0.10 | -0.26 | 0.0269 | -0.50 |  | 
10 | HS90A_HUMAN | -0.17 | -0.24 | 0.22 | -0.28 |  | 
11 | HS90B_HUMAN | -0.13 | -0.16 | 0.29 | -0.12 |  | 
12 | HSPB1_HUMAN | -1.28 | -0.92 | -0.85 | -0.80 |  | 
13 | LLELAKKKYEEELKKKEPDLTKLVLLKNVIKKLK |  |  |  |  | 42 | 
14 | MQPINKARALYRISHLKLSNSKREQDEQVLLRLHMIAFLNIVNHT |  |  |  |  | 0 | 
15 | PVKLQLLKKAKEKLADENLSLEKKVLLKNLIKSW |  |  |  |  | 68 | 
16 | QIIQRSFSSPENFQRQAVMNSALRQMSYGGW [RBM7 129–158 WT] |  |  |  |  |  | low micromolar
17 | QRLMTLSVWKMYHSRMQRGGEDAWLSLMLSLAMRLG |  |  |  |  | 0 | 
18 | RLPINLERALYRLSHLKLSNSKRELYEQVALKLAMLGFLNLVNHT |  |  |  |  | 11.5 | 
19 | SLIWQSNMDKALVKLQLCHMLEQPDLTKSVMILAGVLAAQEFM |  |  |  |  | 0 | 
